Values quoted from earlier work as cited in patent US8314084B2, “Device and methods for sequential, regional delivery of multiple cytotoxic agents and directed assembly of wound repair tissues” (priority 2002, dated 2012).

Conditions: given intravenously to dogs

**Q.** For `N.N.[Cl][Pt][Cl]` [cisplatin, Cis-diamminedichloroplatinum H], which “usual maximum dose-limiting schedule” value is on record?
**A.** 70 mg/m^2
